In patent US7615651B2, “Diaryl, dipyridinyl and aryl-pyridinyl derivatives and uses thereof” (Pfizer Inc., priority 2006, dated 2009):
Structures can show the parent of a compound that is named as a salt. Where two headings read alike, the source gives them in different places.

Experiments:
opioid receptor delta = target: T1, opioid receptor delta (Homo sapiens, UniProt P41143); assay: GTPγ[35S] binding assay, antagonism of BW-373U86; type: biochemical
T1 construct: expressed in transfected cells
T1 sequence (P41143 whole entry): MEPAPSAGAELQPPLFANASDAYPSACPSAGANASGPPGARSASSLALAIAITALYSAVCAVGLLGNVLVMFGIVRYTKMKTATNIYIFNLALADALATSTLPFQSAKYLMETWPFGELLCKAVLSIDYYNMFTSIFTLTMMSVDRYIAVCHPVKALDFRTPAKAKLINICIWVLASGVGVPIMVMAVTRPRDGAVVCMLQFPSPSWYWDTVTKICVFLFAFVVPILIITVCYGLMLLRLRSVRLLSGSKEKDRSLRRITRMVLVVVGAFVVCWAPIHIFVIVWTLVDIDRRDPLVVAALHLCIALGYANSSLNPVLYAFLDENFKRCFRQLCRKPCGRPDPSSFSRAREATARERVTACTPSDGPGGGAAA
In short: (§1)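 Membranes with […] GTPγ[35S] in Tris pH 7.4 buffer with MgCl2, NaCl, 30 μM GDP; antagonist (10^−10–10^−5 M) preincubated 10 min at 30 °C, then challenged with BW-373U86 1 nM (delta), dynorphin-A 10 nM (kappa) or endorphin 1 μM (mu) for 1 h at 30 °C. Scintillation read-out; Ki derived.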

opioid receptor mu = target: T2, opioid receptor mu (Homo sapiens, UniProt P35372); assay: GTPγ[35S] binding assay, antagonism of endorphin; type: biochemical
T2 construct: expressed in transfected cells
T2 sequence (P35372 whole entry): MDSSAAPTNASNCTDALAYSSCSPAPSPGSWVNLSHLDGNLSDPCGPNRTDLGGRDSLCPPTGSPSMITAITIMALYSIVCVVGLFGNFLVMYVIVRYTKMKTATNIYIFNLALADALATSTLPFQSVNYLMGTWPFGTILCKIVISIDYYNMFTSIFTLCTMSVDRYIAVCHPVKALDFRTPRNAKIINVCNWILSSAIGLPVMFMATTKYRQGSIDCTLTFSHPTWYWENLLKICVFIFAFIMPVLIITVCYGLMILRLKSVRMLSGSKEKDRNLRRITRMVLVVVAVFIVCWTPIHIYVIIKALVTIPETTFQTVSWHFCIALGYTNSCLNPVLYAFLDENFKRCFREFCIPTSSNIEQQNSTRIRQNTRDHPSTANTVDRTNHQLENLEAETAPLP
In short: as §1

[1] = Spontaneous food intake model; type: in vivo, Sprague-Dawley rats; details: rats dosed before onset of dark cycle, compared with vehicle
Experimental: Male Sprague-Dawley rats may be obtained from Charles River Laboratories, Inc. (Wilmington, Mass.). The rats were individually housed and fed powdered chow. They were maintained on a 12 hour light/dark cycle and received food and water ad libitum. The animals were acclimated to the vivarium for a period of one week before testing is conducted. Rats were transferred to individual test cages 30 hours before the study. The rats were administered test compound or vehicle alone (no compound) 15-30 minutes prior to the onset of the dark cycle. The test compounds were dosed at ranges between 0.1 and 100 mg/kg depending upon the compound. The standard vehicle was 0.5% (w/v) methylcellulose or 30% β-cyclodextrin in water and the standard route of administration was oral. However, different vehicles and routes of administration are used to accommodate various compounds when required. Food intake was monitored using an automated Columbus Instruments system (Columbus, Ohio). Individual rat food intake was recorded continuously at 10-minute intervals, starting at the time of dosing, for a period of at least 12 hours. Compound efficacy was determined by comparing the food intake pattern of compound-treated rats to vehicle.

opioid receptor kappa = target: T3, opioid receptor kappa (Homo sapiens, UniProt P41145); assay: GTPγ[35S] binding assay, antagonism of dynorphin-A; type: biochemical
T3 construct: expressed in transfected cells
T3 sequence (P41145 whole entry): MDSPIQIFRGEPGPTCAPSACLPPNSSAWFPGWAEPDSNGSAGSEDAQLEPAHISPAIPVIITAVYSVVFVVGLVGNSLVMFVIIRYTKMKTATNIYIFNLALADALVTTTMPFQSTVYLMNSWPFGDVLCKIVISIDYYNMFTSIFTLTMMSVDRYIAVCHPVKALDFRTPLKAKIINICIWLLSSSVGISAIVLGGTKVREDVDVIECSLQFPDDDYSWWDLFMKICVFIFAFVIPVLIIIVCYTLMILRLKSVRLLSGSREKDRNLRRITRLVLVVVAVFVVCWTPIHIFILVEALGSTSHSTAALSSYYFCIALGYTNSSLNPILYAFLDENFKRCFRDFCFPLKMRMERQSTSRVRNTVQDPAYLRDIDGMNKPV
In short: as §1

[2] = Fasted induced refeeding model; type: in vivo, Sprague-Dawley rats; details: rats after overnight fast, compared with vehicle
Experimental: The following screen is used to evaluate the efficacy of test compounds for inhibiting food intake in Sprague-Dawley rats after an overnight fast.
Male Sprague-Dawley rats were obtained from Charles River Laboratories, Inc. (Wilmington, Mass.). The rats are individually housed and fed powdered chow. They are maintained on a 12 hour light/dark cycle and received food and water ad libitum. The animals are acclimated to the vivarium for a period of one week before testing is conducted. Testing is completed during the light portion of the cycle.
To conduct the food intake efficacy screen, rats are transferred to individual test cages without food the afternoon prior to testing, and the rats are fasted overnight. After the overnight fast, rats are dosed the following morning with vehicle or test compounds. A known antagonist is dosed (3 mg/kg) as a positive control, and a control group receives vehicle alone (no compound). […] Individual rat food intake is recorded continuously at 10-minute intervals for a period of two hours. When required, food intake is recorded manually using an electronic scale; food is weighed every 30 minutes after food is provided up to four hours after food is provided. Compound efficacy is determined by comparing the food intake pattern of compound-treated rats to vehicle and the standard positive control.

[3] = rat, in vivo; cited from earlier work
mu opioid receptor = mu opioid receptor (Homo sapiens, UniProt P35372); details: mu opioid receptor subtype; cited from earlier work
mu opioid receptor, sequence (P35372 whole entry): as the sequence (P35372 whole entry) above

kappa opioid receptor = kappa opioid receptor (Homo sapiens, UniProt P41145); details: kappa opioid receptor subtype; cited from earlier work
kappa opioid receptor, sequence (P41145 whole entry): as the sequence (P41145 whole entry) above

delta opioid receptor = delta opioid receptor (Homo sapiens, UniProt P41143); details: cited from earlier work
delta opioid receptor, sequence (P41143 whole entry): as the sequence (P41143 whole entry) above

[4] = bile duct ligated rats; cited from earlier work
TNF-α production = details: rats; cited from earlier work
[5] = rodents; cited from earlier work
[6] = cited from earlier work
[7] = humans; cited from earlier work
[8] = read-out: Delta functional (GTPγ[35S] binding Ki)
[9] = read-out: Mu functional (GTPγ[35S] binding Ki)
[10] = read-out: Kappa functional (GTPγ[35S] binding Ki)

Cc1cc(C(N)=O)c(F)cc1-c1ccc(CNCCC(C)C)c(F)c1.Cl.O (hydrate or solvate)
melting point: 229 °C

Cc1cc(C(N)=O)ccc1-c1cc(F)c(CNCCC(C)C)c(F)c1.Cl [E1-01, 3′,5′Difluoro-2-methyl-4′-[(3-methyl-butylamino)-methyl]-biphenyl-4-carboxylic acid amide hydrochloride salt]
Ki (opioid receptor delta; [8]): 1.7 nM | Ki (opioid receptor mu; [9]): 2.1 nM | food intake [1]: significant reduction in food intake | Ki (opioid receptor kappa; [10]): 2.64 nM

Cc1cc(CNCCC(C)C)ccc1-c1ccc(C(N)=O)cc1C.Cl [E2-01, 2,2′-Dimethyl-4′-[(3-methyl-butylamino)-methyl]-biphenyl-4-carboxylic acid amide hydrochloride salt]
Ki (opioid receptor delta; [8]): 1.38 nM | Ki (opioid receptor mu; [9]): 0.886 nM | food intake [1]: significant reduction in food intake | Ki (opioid receptor kappa; [10]): 2.06 nM

Cc1cc(C(N)=O)ccc1-c1ccc(CNCCC(C)C)c(Cl)c1 [E3-01, hydrochloride salt]
Ki (opioid receptor delta; [8]): 1.53 nM | Ki (opioid receptor mu; [9]): 2.82 nM | food intake [1]: significant reduction in food intake | Ki (opioid receptor kappa; [10]): 1.73 nM

Cc1cc(C(N)=O)ccc1-c1ccc(CNCCC(C)C)cc1 [E4-01, 2-Methyl-4′-[(3-methyl-butylamino)-methyl]-biphenyl-4-carboxylic acid amide]
Ki (opioid receptor delta; average Ki, antagonism of BW-373U86 (1 nM) stimulated GTPγ[35S] binding, delta opioid receptor membranes, read-out: Delta functional (GTPγ[35S] binding Ki)): 20 nM | Ki (opioid receptor mu; average Ki, antagonism of endorphin (1 μM) stimulated GTPγ[35S] binding, mu opioid receptor membranes, read-out: Mu functional (GTPγ[35S] binding Ki)): 6.5 nM | food intake [1]: significant reduction in food intake | Ki (opioid receptor kappa; average Ki, antagonism of dynorphin-A (10 nM) stimulated GTPγ[35S] binding, kappa opioid receptor membranes, read-out: Kappa functional (GTPγ[35S] binding Ki)): 2.4 nM

CC(C)CCNCc1ccc(-c2cccc(-c3nnc[nH]3)c2)c(F)c1.Cl [E7-02, [2-Fluoro-3′-(4H-[1,2,4]-triazol-3-yl)-biphenyl-4-ylmethyl]-(3-methyl-butyl)-amine hydrochloride salt]
Ki (opioid receptor delta; read-out: Delta functional Ki (GTPγ[35S] binding)): 1400 nM | Ki (opioid receptor mu; read-out: Mu functional Ki (GTPγ[35S] binding)): 3.3 nM | food intake [1]: significant reduction in food intake | Ki (opioid receptor kappa; read-out: Kappa functional Ki (GTPγ[35S] binding)): 5.9 nM | food intake [2]: significant reduction in food intake

C[C@H]1CN(CC[C@H](O)C2CCCCC2)CC[C@@]1(C)c1cccc(O)c1 [LY255582]
anorectic effects [3]: robust anorectic effects

C[C@H]1CN(CCC(O)C2CCCCC2)CC[C@@]1(C)c1cccc(O)c1 (stereo partly drawn) [LY515300, 1-(3-cyclohexyl-3-hydroxypropyl)-3(R),4(R)-dimethyl-4-(3-hydroxyphenyl)piperidine]
binding affinity (mu opioid receptor): subnanomolar | binding affinity (kappa opioid receptor): subnanomolar | binding affinity (delta opioid receptor): lower affinity

O=C1CC[C@@]2(O)[C@H]3Cc4ccc(O)c5c4[C@@]2(CCN3CC2CC2)[C@H]1O5 [Naltrexone]
liver fibrosis [4]: attenuate liver fibrosis | LPS-stimulated TNF-α production (TNF-α production): inhibit LPS-stimulated TNF-α production | weight loss efficacy [5]: poor weight loss efficacy | insulin sensitivity ([6]; Polycystic Ovarian Syndrome (PCOS) women with hyperinsulinemia): improve insulin sensitivity | insulin sensitivity ([6]; post-menopausal women with hyperinsulinemia): improve insulin sensitivity | weight loss efficacy [7]: poor weight loss efficacy
